Assay results reported in patent publication US8143293B2, “Kinase inhibitors useful for the treatment of myleoprolific diseases and other proliferative diseases” (Deciphera Pharmaceuticals, LLC, priority 2007, dated 2012).
Numbering of substitutions follows the chain as printed.

How the values were obtained:
[1] = molecular target: T1, Abl kinase (SEQ ID NO: 1) (Homo sapiens, UniProt P00519); assay: Abl kinase (SEQ ID NO:1) assay, pyruvate kinase/lactate dehydrogenase coupled; conditions: 2 h preincubation, ATP 500 μM; read-out: Biochemical IC50, Abl Enzyme Assay
T1 construct: purchased deCode Genetics
T1 sequence (P00519 with tags, fused parts or gaps): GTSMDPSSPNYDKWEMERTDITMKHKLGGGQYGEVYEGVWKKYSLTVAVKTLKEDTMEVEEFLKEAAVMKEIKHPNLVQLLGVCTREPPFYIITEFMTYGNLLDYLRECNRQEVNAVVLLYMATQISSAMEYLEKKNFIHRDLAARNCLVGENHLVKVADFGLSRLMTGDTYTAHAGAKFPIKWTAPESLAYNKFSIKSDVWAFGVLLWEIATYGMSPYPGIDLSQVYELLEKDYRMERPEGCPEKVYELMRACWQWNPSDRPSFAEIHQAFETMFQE
Protocol: Abl Kinase (SEQ ID NO:1) Assay
Activity of Abl kinase (SEQ ID NO: 1) was determined by following the production of ADP from the kinase reaction through coupling with the pyruvate kinase/lactate dehydrogenase system (e.g., Schindler, et al. Science (2000) 289, 1938-1942). In this assay, the oxidation of NADH (thus the decrease at A340 nm) was continuously monitored spectrophometrically. The reaction mixture (100 μl) contained Abl kinase (1 nM. Abl from deCode Genetics), peptide substrate (EAIYAAPFAKKK, 0.2 mM), MgCl2 (10 mM), pyruvate kinase (4 units), lactate dehydrogenase (0.7 units), phosphoenol pyruvate (1 mM), and NADH (0.28 mM) in 90 mM Tris buffer containing 0.2% octyl-glucoside and 3.5% DMSO, pH 7.5. Test compounds were incubated with Abl (SEQ ID NO:1) and other reaction reagents at 30° C. for 2 h before ATP (500 μM) was added to start the reaction. The absorption at 340 nm was monitored continuously for 2 hours at 30° C. on Polarstar Optima plate reader (BMG). The reaction rate was calculated using the 1.0 to 2.0 h time frame. Percent inhibition was obtained by comparison of reaction rate with that of a control (i.e. with no test compound). IC50 values were calculated from a series of percent inhibition values determined at a range of inhibitor concentrations using software routines as implemented in the GraphPad Prism software package.

[2] = molecular target: T2, T315I Abl kinase (SEQ ID NO:2) (Homo sapiens, UniProt P00519, T315I); assay: T315I Abl kinase (SEQ ID NO:2) assay, pyruvate kinase/lactate dehydrogenase coupled; conditions: 1 h preincubation, ATP 500 μM; read-out: Biochemical IC50, Abl T315I Enzyme Assay
T2 construct: purchased deCode Genetics
T2 sequence (P00519 with tags, fused parts or gaps T315I): T1 sequence (P00519 with tags, fused parts or gaps) with T94I
Protocol: Abl Kinase (SEQ ID NO:2) Assay
Activity of T315I Abl kinase (SEQ ID NO:2) was determined by following the production of ADP from the kinase reaction through coupling with the pyruvate kinase/lactate dehydrogenase system (e.g., Schindler, et al. Science (2000) 289, 1938-1942). In this assay, the oxidation of NADH (thus the decrease at A340 nm) was continuously monitored spectrophometrically. The reaction mixture (100 μl) contained Abl kinase (4.4 nM, […] Abl from deCode Genetics), peptide substrate (EAIYAAPFAKKK, 0.2 mM), MgCl2 (10 mM), pyruvate kinase (4 units), lactate dehydrogenase (0.7 units), phosphoenol pyruvate (1 mM), and NADH (0.28 mM) in 90 mM Tris buffer containing 0.2% octyl-glucoside and 1% DMSO, pH 7.5. Test compounds were incubated with T315I Abl (SEQ ID NO:2) and other reaction reagents at 30° C. for 1 h before ATP (500 μM) was added to start the reaction. The absorption at 340 nm was monitored continuously for 2 hours at 30° C. on Polarstar Optima plate reader (BMG). The reaction rate was calculated using the 1.0 to 2.0 h time frame. Percent inhibition was obtained by comparison of reaction rate with that of a control (i.e. with no test compound). IC50 values were calculated from a series of percent inhibition values determined at a range of inhibitor concentrations using software routines as implemented in the GraphPad Prism software package.

[3] = molecular target: T3, C-Met kinase (SEQ ID NO:10) (Homo sapiens, UniProt P08581); assay: C-Met kinase (SEQ ID NO:10) assay, pyruvate kinase/lactate dehydrogenase coupled; conditions: 0.5 h preincubation, ATP 100 μM; read-out: Biochemical IC50, c-Met Enzyme Assay
T3 construct: 956-1390, from Invitrogen, catalogue #PV3143; His6 (N-terminal leader MSYYHHHHHH... with TEV and thrombin sites) (N); purchased Invitrogen PV3143
Protocol: C-Met Kinase (SEQ ID NO:10) Assay
Activity of C-Met kinase (SEQ ID NO:10) was determined by following the production of ADP from the kinase reaction through coupling with the pyruvate kinase/lactate dehydrogenase system (e.g., Schindler, et al. Science (2000) 289, 1938-1942). In this assay, the oxidation of NADH (thus the decrease at A340 nm) was continuously monitored spectrophometrically. The reaction mixture (100 μl) contained C-Met (c-Met residues; 956-1390, from Invitrogen, catalogue #PV3143, […]), polyE4Y (1 mg/ml), MgCl2 (10 mM), pyruvate kinase (4 units), lactate dehydrogenase (0.7 units), phosphoenol pyruvate (1 mM), and NADH (0.28 mM) in 90 mM Tris buffer containing 0.25 mM DTT, 0.2% octyl-glucoside and 1% DMSO, pH 7.5. Test compounds were incubated with C-Met (SEQ ID NO:10) and other reaction reagents at 22° C. for 0.5 h before ATP (100 μM) was added to start the reaction. The absorption at 340 nm was monitored continuously for 2 hours at 30° C. on Polarstar Optima plate reader (BMG). The reaction rate was calculated using the 1.0 to 2.0 h time frame. Percent inhibition was obtained by comparison of reaction rate with that of a control (i.e. with no test compound). IC50 values were calculated from a series of percent inhibition values determined at a range of inhibitor concentrations using software routines as implemented in the GraphPad Prism software package.

[4] = molecular target: T4, BaF3 cells transfected with wild type p210 BCR-Abl (Homo sapiens, UniProt P00519); assay: Ba/F3 p210 whole cell proliferation assay; assay type: cell-based; conditions: 72 hours, Cell Titer Blue; read-out: Whole Cell Antiproliferation IC50, Ba/F3 p210 whole cell proliferation assay
T4 construct: fused on or other part: P11274 (Breakpoint cluster region protein)
Protocol: (§1) BaF3 cells (parental or transfected with the following: wild type p210 BCR-Abl and T315I p210 BCR-Abl was obtained from Professor Richard Van Etten (New England Medical Center, Boston, Mass.). Briefly, cells were grown in RPMI 1640 supplemented with 10% characterized fetal bovine serum (HyClone, Logan, Utah) at 37 degrees Celsius, 5% CO2, 95% humidity. Cells were allowed to expand until reaching 80% saturation at which point they were subcultured or harvested for assay use.
(§2) A serial dilution of test compound was dispensed into a 96 well black clear bottom plate (Corning, Corning, N.Y.). For each cell line, three thousand cells were added per well in complete growth medium. Plates were incubated for 72 hours at 37 degrees Celsius, 5% CO2, 95% humidity. At the end of the incubation period Cell Titer Blue (Promega, Madison, Wis.) was added to each well and an additional 4.5 hour incubation at 37 degrees Celsius, 5% CO2, 95% humidity was performed. Plates were then read on a BMG Fluostar Optima (BMG, Durham, N.C.) using an excitation of 544 nm and an emission of 612 nm. Data was analyzed using Prism software (Graphpad, San Diego, Calif.) to calculate IC50's.

[5] = molecular target: T5, BaF3 cells transfected with T315I p210 BCR-Abl (Homo sapiens, UniProt P00519, T315I, cells depend on it); assay: Ba/F3 p210 T315I whole cell proliferation assay; assay type: cell-based; conditions: 72 hours, Cell Titer Blue; read-out: Whole Cell Antiproliferation IC50, Ba/F3 p210 T315I whole cell proliferation assay
T5 construct: fused on or other part: P11274 (Breakpoint cluster region protein)
Protocol: as §1, §2

T3 sequence (P08581 with tags, fused parts or gaps): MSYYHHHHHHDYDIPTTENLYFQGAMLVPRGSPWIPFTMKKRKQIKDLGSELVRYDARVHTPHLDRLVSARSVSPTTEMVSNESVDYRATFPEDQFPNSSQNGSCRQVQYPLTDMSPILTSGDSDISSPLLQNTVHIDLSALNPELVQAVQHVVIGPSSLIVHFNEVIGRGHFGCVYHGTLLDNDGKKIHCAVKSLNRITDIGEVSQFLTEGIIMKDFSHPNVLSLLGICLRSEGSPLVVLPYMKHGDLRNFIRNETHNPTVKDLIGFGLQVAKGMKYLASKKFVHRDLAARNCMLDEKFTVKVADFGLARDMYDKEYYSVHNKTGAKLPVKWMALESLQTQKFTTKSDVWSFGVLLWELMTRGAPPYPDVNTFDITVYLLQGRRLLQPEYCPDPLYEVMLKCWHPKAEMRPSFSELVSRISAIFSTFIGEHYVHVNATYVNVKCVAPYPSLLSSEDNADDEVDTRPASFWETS

IC50 [1] | IC50 [2] | IC50 [3] | GI50 [4] | GI50 [5] | Compound
< 100 nM | < 100 nM | < 1000 nM | < 100 nM | < 100 nM | Cn1cc(-c2cc(Oc3ccc(NC(=O)Nc4cc(C(C)(C)C)on4)c(F)c3)ccn2)cn1 [Example 4, 1-(5-t-butylisoxazol-3-yl)-3-(2-fluoro-4-(2-(1-methyl-1H-pyrazol-4-yl)pyridin-4-yloxy)phenyl)urea]
< 100 nM | < 1000 nM | < 10000 nM | < 100 nM | < 1000 nM | Cn1cc(-c2cc(Oc3ccc(NC(=O)Nc4cc(C(F)(F)F)nn4C)c(F)c3)ccn2)cn1 [Example 16, 1-(2-fluoro-4-(2-(1-methyl-1H-pyrazol-4-yl)pyridin-4-yloxy)phenyl)-3-(1-methyl-3-(trifluoromethyl)-1H-pyrazol-5-yl)urea]
< 100 nM | < 100 nM | < 10000 nM | < 100 nM | < 1000 nM | Cc1nn(C(C)C)cc1NC(=O)Nc1ccc(Oc2ccnc(-c3cnn(C)c3)c2)cc1F [Example 20, 1-(2-fluoro-4-(2-(1-methyl-1H-pyrazol-4-yl)pyridin-4-yloxy)phenyl)-3-(1-isopropyl-3-methyl-1H-pyrazol-4-yl)urea]
< 100 nM | < 100 nM | < 10000 nM | < 100 nM | < 1000 nM | Cn1cc(-c2cc(Oc3ccc(NC(=O)Nc4ccn(C(C)(C)C)c4)c(F)c3)ccn2)cn1 [Example 30, 1-(1-tert-butyl-1H-pyrrol-3-yl)-3-(2-fluoro-4-(2-(1-methyl-1H-pyrazol-4-yl)pyridin-4-yloxy)phenyl)urea]

The remaining lines, values behind:

Compound | IC50 [1] | IC50 [2] | IC50 [3] | GI50 [4] | GI50 [5]
1-(3-cyclopentylisoxazol-5-yl)-3-(2-fluoro-4-(2-(1-methyl-1H-pyrazol-4-yl)pyridin-4-yloxy)phenyl)urea [Example 13] | < 100 nM | < 10000 nM | < 1000 nM | < 100 nM | < 100 nM
Cn1cc(-c2cc(Oc3ccc(NC(=O)Nc4cc(C(F)(F)F)no4)c(F)c3)ccn2)cn1 [Example 7, 1-(2-fluoro-4-(2-(1-methyl-1H-pyrazol-4-yl)pyridin-4-yloxy)phenyl)-3-(3-(trifluoromethyl)isoxazol-5-yl)urea] | < 100 nM | < 100 nM | < 10000 nM | < 100 nM | < 1000 nM
Cc1c(Oc2ccnc(-c3cnn(C)c3)c2)ccc(NC(=O)Nc2cnn(C(C)(C)C)c2)c1F [Example 17, 1-(1-tert-butyl-1H-pyrazol-4-yl)-3-(2-fluoro-3-methyl-4-(2-(1-methyl-1H-pyrazol-4-yl)pyridin-4-yloxy)phenyl)urea] | < 100 nM | < 100 nM | < 1000 nM | < 100 nM | < 100 nM
Cc1c(NC(=O)Nc2ccc(Oc3ccnc(-c4cnn(C)c4)c3)cc2F)cnn1C(C)C [Example 19, 1-(2-fluoro-4-(2-(1-methyl-1H-pyrazol-4-yl)pyridin-4-yloxy)phenyl)-3-(1-isopropyl-5-methyl-1H-pyrazol-4-yl)urea] | < 1000 nM | < 1000 nM | < 10000 nM | < 100 nM | < 10000 nM
tert-butyl 4-(2-tert-butyl-5-(3-(2-fluoro-4-(2-(1-methyl-1H-pyrazol-4-yl)pyridin-4-yloxy)phenyl)ureido)pyrimidin-4-yl)piperazine-1-carboxylate [Example 40] | < 100 nM | < 1000 nM | < 100000 nM | < 1000 nM | < 1000 nM
